ChEMBL document CHEMBL5032536, “Synthesis and Cytotoxic Activity of Lepidilines A-D: Comparison with Some 4,5-Diphenyl Analogues and Related Imidazole-2-thiones” (J Nat Prod, 2021)

Legend:
[1] = Selectivity ratio of IC50 for cytotoxicity against HUVEC cells to IC50 for cytotoxicity against human HL-60 cells; assay type: toxicity, cell-based; settings: HUVEC cells versus HL-60 cells, read-out: Ratio IC50
[2] = Selectivity ratio of IC50 for cytotoxicity against human MCF7 cells to IC50 for cytotoxicity against human HL-60 cells; assay type: toxicity, cell-based; settings: MCF7 cells versus HL-60 cells, read-out: Ratio IC50

For COc1cccc(Cn2c(C)c(C)[n+](Cc3ccccc3)c2C)c1, the selectivity ratio [1] was > 100 and the selectivity ratio [2] was > 100.
